Test [1] relates to neointima formation. The conditions noted are these: rats; cited from earlier work.
The target in test [2] is T1, CDK9/cyclinT1 (Homo sapiens, UniProt P50750).
T1 construct: purchased Millipore
Briefly: CDK9/cyclinT1 kinase assay, IMAP fluorescence polarization. Format: biochemical. In outline:
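Recombinant purified enzyme complexes assayed by IMAP fluorescence polarization with 1% final DMSO, 2 h at room temperature; stopped with 1× Developer buffer (85% A/15% B) plus IMAP beads 1/400, then 1 h further at room temperature. IC50 from normalized mP versus log compound concentration.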
On the technique in general: Fluorescence polarisation rises when a labelled molecule tumbles more slowly, as on binding a larger partner.

In test [3] the target is CDK5 (Homo sapiens, UniProt Q00535). The test can be described thus: CDK5 kinase assay (Table F). It is filed as biochemical.
The target in test [4] is CDK4 (Homo sapiens, UniProt P11802). Briefly: CDK4 kinase assay (Table F). It is filed as biochemical.
Test [5] concerns the target T2, CDK1/cyclinB (Homo sapiens, UniProt P06493).
T2 construct: purchased Millipore
The test can be described thus: CDK1/cyclinB kinase assay, IMAP fluorescence polarization. It is filed as biochemical. The conditions noted are these: read-out: CDK1 IC50. In outline:
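IMAP fluorescence polarization assay on recombinant purified enzyme, compounds at final 1% DMSO. Reaction run 2 h at room temperature, stopped, held 1 h more before reading polarization.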

The target in test [6] is T3, CDK7/cyclinH/MAT1 (Homo sapiens, UniProt P50613).
T3 construct: purchased Millipore
Briefly: CDK7/cyclinH/Mat1 kinase assay, IMAP fluorescence polarization. It is filed as biochemical. The method, then:
Kinase assays were performed on recombinant purified enzymes using the non-radioactive IMAP fluorescence polarization assay format.
Compound stocks were prepared and diluted in DMSO and were added to kinase reactions at a 1/100 dilution for a final concentration of 1% DMSO. The components were added together to final concentrations listed in the tables below and incubated for two hours at room temperature.
The reactions were stopped by addition of stop solution.
CDK9/CDK1/CDK7: final stop concentration is 1× Developer buffer (85% A/15% B), IMAP beads 1/400
The samples were allowed to incubate for one more hour at room temperature and then the fluorescence polarization was measured. The plate normalized millipolarization (mP) values were plotted against the log of compound concentration for each compound and IC50 values were calculated using the spotfire IC50 calculator and confirmed by visual analysis.

Test [7] has as its system RNA Polymerase II CTD Serine2 Phosphorylation. The test can be described thus: H5 (Ser2) Ab High Content Screen: RNA Polymerase II CTD Serine2 Phosphorylation Assay in Hep3B cells. The following applies: Homo sapiens, 2 hours with compound, H5 antibody staining. It is filed as cell-based. On the procedure: H5 (also referred as Ser2) Ab High Content Screen: RNA Polymerase II CTD Serine2 Phosphorylation Assay
1. Cells are plated into 384 well plates: 30 μl of Hep3B cells (4,000 cells/30 μl) in DMEM with 3% FBS are plated into wells of a tissue culture treated clear bottomed 384 well plate. Cells are allowed to adhere during an overnight incubation.
2. Cells are treated with compounds for two hours: 10 μl of DMEM with 3% FBS is added to each well with a final concentration of DMSO equal to 1%. Cells are incubated with compounds for 2 hours.
3. Cells are fixed and permeabilized. Cells are washed with 30 mM HEPES pH=7.3 then fixed in 4% paraformaldehyde in 30 mM HEPES pH=7.3 for one hour at room temperature. The fix is removed by washing the cells with Tris buffered saline (TBS) and the cells are permeabilized by incubation in TBS with 0.5% triton X-100 for 30 minutes at room temperature. Triton is removed by washing the cells with TBS.
4. […] Incubate primary H5 Ab (1/250 ) overnight at 4 degrees in TBS with 1% BSA and 0.1% Tween-20. The next day wash cells with TBS. […] Wash cells with PBS.
5. Measure staining using the In-cell Analyzer system from GE Healthcare.

In test [8] the target is T4, CDK2/cyclinA (Homo sapiens, UniProt P24941).
T4 construct: purchased Millipore
Briefly: CDK2/cyclinA kinase assay, IMAP fluorescence polarization. It is filed as biochemical. In outline:
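Recombinant purified enzyme reactions run 2 hours at room temperature with 1% DMSO final. Stopped with 1× Developer buffer (100% A) and IMAP beads 1/400, then 1 hour more before fluorescence polarization read. IC50 from mP values versus log concentration.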

Bounds are passed on as bounds.

T2 sequence (P06493 whole entry): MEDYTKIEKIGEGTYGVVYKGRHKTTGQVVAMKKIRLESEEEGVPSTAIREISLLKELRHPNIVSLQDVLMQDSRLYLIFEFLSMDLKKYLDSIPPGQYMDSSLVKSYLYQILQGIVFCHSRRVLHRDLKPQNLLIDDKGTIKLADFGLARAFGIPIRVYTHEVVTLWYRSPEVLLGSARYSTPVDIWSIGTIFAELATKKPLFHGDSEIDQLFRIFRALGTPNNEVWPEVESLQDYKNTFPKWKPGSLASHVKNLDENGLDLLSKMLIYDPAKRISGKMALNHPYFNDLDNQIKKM
T2 sequence (P14635 whole entry partner): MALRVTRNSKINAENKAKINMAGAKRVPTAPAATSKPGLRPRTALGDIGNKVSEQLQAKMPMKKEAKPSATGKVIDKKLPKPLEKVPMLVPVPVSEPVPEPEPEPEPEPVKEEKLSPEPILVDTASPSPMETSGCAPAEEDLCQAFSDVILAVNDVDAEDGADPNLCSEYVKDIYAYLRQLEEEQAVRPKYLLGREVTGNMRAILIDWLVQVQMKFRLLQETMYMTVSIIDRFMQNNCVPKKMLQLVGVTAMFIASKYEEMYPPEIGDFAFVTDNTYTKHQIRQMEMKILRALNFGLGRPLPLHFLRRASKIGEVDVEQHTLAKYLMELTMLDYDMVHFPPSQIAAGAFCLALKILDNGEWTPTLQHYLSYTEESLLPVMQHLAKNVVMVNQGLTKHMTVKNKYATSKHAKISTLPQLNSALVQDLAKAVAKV
T1 sequence (P50750 whole entry): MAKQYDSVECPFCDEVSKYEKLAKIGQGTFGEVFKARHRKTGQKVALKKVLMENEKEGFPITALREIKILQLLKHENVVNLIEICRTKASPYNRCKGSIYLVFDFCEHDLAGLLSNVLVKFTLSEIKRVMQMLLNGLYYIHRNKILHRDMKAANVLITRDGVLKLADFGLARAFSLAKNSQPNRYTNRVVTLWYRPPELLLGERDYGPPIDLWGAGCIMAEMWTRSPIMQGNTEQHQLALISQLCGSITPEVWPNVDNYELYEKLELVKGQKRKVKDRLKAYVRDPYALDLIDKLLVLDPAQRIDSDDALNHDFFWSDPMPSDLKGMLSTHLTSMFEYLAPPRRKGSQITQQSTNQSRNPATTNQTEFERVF
T1 sequence (O60563 whole entry partner): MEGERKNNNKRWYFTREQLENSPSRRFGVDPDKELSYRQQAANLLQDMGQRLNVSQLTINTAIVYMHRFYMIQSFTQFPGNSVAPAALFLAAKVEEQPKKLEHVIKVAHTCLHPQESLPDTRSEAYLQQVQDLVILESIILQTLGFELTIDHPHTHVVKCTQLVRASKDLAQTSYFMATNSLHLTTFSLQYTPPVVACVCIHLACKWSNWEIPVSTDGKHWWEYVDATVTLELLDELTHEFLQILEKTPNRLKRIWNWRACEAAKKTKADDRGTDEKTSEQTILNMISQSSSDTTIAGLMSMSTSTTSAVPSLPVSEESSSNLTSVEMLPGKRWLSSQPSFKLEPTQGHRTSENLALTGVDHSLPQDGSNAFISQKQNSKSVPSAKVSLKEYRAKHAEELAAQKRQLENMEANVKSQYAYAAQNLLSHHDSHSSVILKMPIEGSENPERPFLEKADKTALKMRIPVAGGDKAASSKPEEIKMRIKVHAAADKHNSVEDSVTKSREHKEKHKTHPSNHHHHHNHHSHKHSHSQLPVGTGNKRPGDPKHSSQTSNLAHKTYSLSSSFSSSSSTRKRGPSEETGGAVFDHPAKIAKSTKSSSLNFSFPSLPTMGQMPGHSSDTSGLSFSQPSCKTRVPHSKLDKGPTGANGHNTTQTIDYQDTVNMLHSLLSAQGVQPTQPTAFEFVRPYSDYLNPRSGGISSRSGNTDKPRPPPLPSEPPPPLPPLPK
T3 sequence (P50613 whole entry): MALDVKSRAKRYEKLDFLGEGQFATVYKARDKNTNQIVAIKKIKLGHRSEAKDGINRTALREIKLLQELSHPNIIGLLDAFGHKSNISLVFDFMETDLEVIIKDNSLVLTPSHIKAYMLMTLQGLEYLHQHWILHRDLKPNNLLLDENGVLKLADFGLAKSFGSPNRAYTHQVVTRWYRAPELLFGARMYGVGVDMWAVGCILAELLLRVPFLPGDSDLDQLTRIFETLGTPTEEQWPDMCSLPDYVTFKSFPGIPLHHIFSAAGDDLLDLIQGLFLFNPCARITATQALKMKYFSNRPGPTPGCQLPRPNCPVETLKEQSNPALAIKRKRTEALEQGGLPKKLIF
T3 sequence (P51946 whole entry partner): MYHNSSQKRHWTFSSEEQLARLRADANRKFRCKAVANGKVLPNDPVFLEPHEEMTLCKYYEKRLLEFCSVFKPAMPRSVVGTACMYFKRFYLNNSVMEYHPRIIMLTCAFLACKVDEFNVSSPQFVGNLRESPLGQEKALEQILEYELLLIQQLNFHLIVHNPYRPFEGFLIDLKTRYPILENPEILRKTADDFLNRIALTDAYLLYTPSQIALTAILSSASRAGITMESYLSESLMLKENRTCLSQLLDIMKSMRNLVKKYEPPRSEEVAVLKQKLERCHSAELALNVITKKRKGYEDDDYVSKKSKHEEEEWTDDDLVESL
T3 sequence (P51948 whole entry partner): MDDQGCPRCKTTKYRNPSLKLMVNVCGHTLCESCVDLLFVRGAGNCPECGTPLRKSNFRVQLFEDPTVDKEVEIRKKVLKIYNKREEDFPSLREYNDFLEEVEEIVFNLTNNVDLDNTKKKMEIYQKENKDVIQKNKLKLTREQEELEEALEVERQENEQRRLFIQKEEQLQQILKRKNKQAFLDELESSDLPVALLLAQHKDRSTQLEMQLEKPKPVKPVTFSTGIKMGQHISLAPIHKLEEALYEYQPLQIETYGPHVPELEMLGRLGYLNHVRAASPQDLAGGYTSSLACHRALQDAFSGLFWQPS
Sequence of CDK4 (P11802 whole entry, species assumed): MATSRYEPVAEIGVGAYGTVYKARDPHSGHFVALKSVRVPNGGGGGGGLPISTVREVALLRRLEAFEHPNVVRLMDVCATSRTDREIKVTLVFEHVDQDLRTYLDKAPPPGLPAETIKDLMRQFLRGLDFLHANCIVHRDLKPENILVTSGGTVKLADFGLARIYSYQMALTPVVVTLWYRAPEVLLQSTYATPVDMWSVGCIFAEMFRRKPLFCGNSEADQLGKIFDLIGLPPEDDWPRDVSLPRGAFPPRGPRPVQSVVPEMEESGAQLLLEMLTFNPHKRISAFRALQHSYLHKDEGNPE
Sequence of CDK4 (P24385 whole entry partner, species assumed): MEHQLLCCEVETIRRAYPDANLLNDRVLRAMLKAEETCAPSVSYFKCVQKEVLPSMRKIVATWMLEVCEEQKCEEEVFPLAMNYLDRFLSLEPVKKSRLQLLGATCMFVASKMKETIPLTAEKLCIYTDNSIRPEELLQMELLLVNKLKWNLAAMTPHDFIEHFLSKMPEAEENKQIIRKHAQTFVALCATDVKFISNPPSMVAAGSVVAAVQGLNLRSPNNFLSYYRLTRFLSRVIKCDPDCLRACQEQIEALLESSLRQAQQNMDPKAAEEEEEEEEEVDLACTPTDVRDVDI
Sequence of CDK5 (Q00535 whole entry, species assumed): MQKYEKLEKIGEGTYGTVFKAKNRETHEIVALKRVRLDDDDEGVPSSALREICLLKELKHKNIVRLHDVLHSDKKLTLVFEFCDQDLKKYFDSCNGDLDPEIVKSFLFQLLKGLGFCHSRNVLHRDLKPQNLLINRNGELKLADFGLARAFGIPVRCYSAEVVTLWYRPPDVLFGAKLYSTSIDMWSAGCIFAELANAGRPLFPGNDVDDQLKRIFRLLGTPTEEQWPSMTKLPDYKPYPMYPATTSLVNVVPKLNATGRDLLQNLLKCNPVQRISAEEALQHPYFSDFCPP
Sequence of CDK5 (Q15078 whole entry partner, species assumed): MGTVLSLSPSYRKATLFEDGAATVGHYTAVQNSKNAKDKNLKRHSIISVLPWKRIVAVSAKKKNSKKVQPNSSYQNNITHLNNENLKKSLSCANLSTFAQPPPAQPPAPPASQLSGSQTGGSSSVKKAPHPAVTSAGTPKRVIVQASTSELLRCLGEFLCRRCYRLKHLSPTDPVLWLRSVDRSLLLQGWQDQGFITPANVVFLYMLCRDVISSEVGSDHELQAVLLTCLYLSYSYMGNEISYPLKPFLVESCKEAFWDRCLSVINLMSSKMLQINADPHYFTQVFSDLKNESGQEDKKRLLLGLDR

Turning to `COc1ccc(CNc2nc(N(CCO)CCO)nc3c2ncn3C(C)C)cc1` [CVT-313], in test [1], the “inhibition of neointima formation” value is given as “greater than 80%”.
Turning to `N#Cc1cccc(Nc2nccc(-c3cccnc3NCCCN)n2)c1` [Compound 60, 3-{4-[2-(3-Amino-propylamino)-pyridin-3-yl]-pyrimidin-2-ylamino}-benzonitrile], the IC50 in test [2], in test [3], in test [4], in test [5], in test [6] and in test [7] was less than 5 µM each time. The IC50 (usually the concentration that gives 50% inhibition) in test [8] is less than 5 µM.
Consider `CC(C)(CN)CNc1ncccc1-c1ccnc(Nc2cccc(Cl)c2)n1` [Compound 61, N-{3-[2-(3-Chloro-phenylamino)-pyrimidin-4-yl]-pyridin-2-yl}-2,2-dimethyl-propane-1,3-diamine], for which the IC50 is less than 5 µM in test [2]; 15 to 50 µM in test [3]; less than 5 µM in test [4]; less than 5 µM in test [5]; less than 5 µM in test [6]; less than 5 µM in test [7]. For the same compound, in test [8], the IC50 is less than 5 µM.
Regarding `OCCCNc1ncccc1-c1ccnc(Nc2cccc(Cl)c2)n1` [Compound 74, 3-{3-[2-(3-Chloro-phenylamino)-pyrimidin-4-yl]-pyridin-2-ylamino}-propan-1-ol], the IC50 was less than 5 µM in test [2]; less than 5 µM in test [3]; 15 to 50 µM in test [4]; less than 5 µM in test [5]; less than 5 µM in test [6]; less than 5 µM in test [7]. In test [8], this compound yielded an IC50 of less than 5 µM.
For the compound `Clc1cccc(Nc2nccc(-c3cccnc3NCCCn3ccnc3)n2)c1` [Compound 80, (3-Chloro-phenyl)-{4-[2-(3-imidazol-1-yl-propylamino)-pyridin-3-yl]-pyrimidin-2-yl}-amine], the IC50 in test [2] is less than 5 µM; in test [3], less than 5 µM; in test [4], 5 to 15 µM; in test [5], less than 5 µM; in test [6] it was less than 5 µM; in test [7] it was less than 5 µM. The compound further returned an IC50 in test [8] of less than 5 µM.
With `COc1ncccc1-c1ccnc(Nc2cccc(C#N)c2)n1` [Compound 91, 3-[4-(2-Methoxy-pyridin-3-yl)-pyrimidin-2-ylamino]-benzonitrile], the IC50 in test [2] is less than 5 µM; in test [3] it was less than 5 µM; in test [4] it was 15 to 50 µM; in test [5], less than 5 µM; in test [6], more than 50 µM; in test [7], more than 50 µM. Further, the concentration for half-maximal inhibition (IC50) in test [8] was less than 5 µM.
Turning to `COc1ncccc1-c1ccnc(Nc2cccc(S(N)(=O)=O)c2)n1` [Compound 99, 3-[4-(2-Methoxy-pyridin-3-yl)-pyrimidin-2-ylamino]-benzenesulfonamide], the IC50 is less than 5 µM in test [2]; less than 5 µM in test [3]; less than 5 µM in test [4]; less than 5 µM in test [5]; 5 to 15 µM in test [6]; less than 5 µM in test [7]. Further, the IC50 in test [8] was less than 5 µM.
Turning to `COc1ccc(-c2ccnc(Nc3cccc(S(C)(=O)=O)c3)n2)c(OC)n1` [Compound 119, [4-(2,6-Dimethoxy-pyridin-3-yl)-pyrimidin-2-yl]-(3-methanesulfonyl-phenyl)-amine], the IC50 is less than 5 µM in test [2]; 5 to 15 µM in test [3]; 15 to 50 µM in test [4]; less than 5 µM in test [5]; more than 50 µM in test [6]; more than 50 µM in test [7]. Moreover, the IC50 in test [8] is less than 5 µM.

The values are drawn from patent US20100048597A1 (Novartis AG, priority 2006, published 2010).
